{
  "source": "patent US6852687B2",
  "about": "“Method for inhibiting apoptosis” (Sucampo AG, priority 2001, dated 2005)",
  "key": {"[1]": {"system": "Conjunctival epithelial cell line CCL-20.2", "experiment": "Caspase-3 activity of conjunctival epithelial cells incubated in serum-free medium (Z-DEVD-AFC fluorescence)", "format": "cell-based", "settings": "for caspase-3 activity compared with the control group: serum-free, 24 hours, n=3", "protocol": "(§1) Conjunctival epithelial cell line CCL-20.2 (obtained from American Type Culture Collection) was incubated in serum-containing medium 199 (Gibco) until 60-70% of confluent. The cells were washed with a serum-free medium and were resuspended in serum-free medium 199 containing albumin 1 mg/ml or serum-free medium 199 containing no albumin. The cells were then incubated for 24 hours and collected.\nThe caspase-3 activities of the collected cells were determined. The cells were lysed in a buffer solution (50 mM HEPES, 1 mM dithiothreitol and 0.1 mM EDTA (pH7.4)) containing 0.1% CHAPS (3-[(3-cholamidopropyl) dimethylammonio]-2-hydroxy-1-propanesulfonic acid) and were centrifuged to collect the supernatant. The caspase activity in the supernatant was determined with 0.1 mM fluorescence substrate (Z-DEVD-AFC) by means of fluorescence intensity measurement(em:505 nm, ex:400 nm) (n=4).\nConjunctival epithelial cell line CCL-20.2 (obtained from American Type Culture Collection) was incubated in serum-containing medium 199 (Gibco) until 70-80% of confluent. The cells were washed with serum-free medium and resuspended in serum-free medium 199 containing albumin 3 mg/ml; albumin 3 mg/ml+EGF10 ng/ml; albumin 3 mg/ml+vitamin A 0.1 μg/ml; or albumin 3 mg/ml+EGF10 ng/ml+vitamin A 0.1 μg/ml. […]\nThe caspase-3 activities of the collected cells were measured. […] The caspase activity in the supernatant was determined with 0.1 mM fluorescence substrate (Z-DEVD-AFC) by means of fluorescence intensity measurement(em:505 nm, ex:400 nm) (n=3). […]\nThe caspase-3 activities of the collected cells were measured. […] The caspase activity in the supernatant was determined with 0.1 mM fluorescence substrate (Z-DEVD-AFC) by means of fluorescence intensity measurement (em:505 nm, ex:400 nm) (n=3). […]\nThe caspase-3 activities of the collected cells were measured. […] The caspase activity in the supernatant was determined with 0.1 mM fluorescence substrate (Z-DEVD-AFC) by means of fluorescence intensity measurement (em: 505 nm, ex: 400 nm) (n=3)."}, "[2]": {"system": "Conjunctival epithelial cell line CCL-20.2", "experiment": "DNA fragmentation (Cell Death Detection ELISAPLUS)", "format": "cell-based", "settings": "Example 1; albumin 1 mg/ml in serum-free medium 199, 24 hours, n=4; measured at 405 nm; control without albumin 0.111 ± 0.018", "protocol": "as §1\nDNA fragmentation was determined with the Cell Death Detection ELISAPLUS (Roche Diagnostics Corporation, Basel, Switzerland). 2×10^4 cells were lysed with 0.1 ml of buffering solution and centrifuged to collect the supernatant. The obtained supernatant as well as positive and background controls, each in the amount of 20 μl, was respectively added to a plate coated with streptavidin. After adding an immunologic reagent (incubation buffer: antihistone-biotin: anti-DNA-POD=18:1:1) 80 μl to each plate, it was coated with a film and shaken at 300 rpm for 2 hours at room temperature. Then the plate was washed with incubation buffer 250-300 μl for 3 times. After adding substrate (ABTS) solution 100 μl to the plate, it was shaken at 250 rpm for 10-20 minutes at room temperature. The measurement was 405 nm (reference wavelength 492 nm)(n=4)."}},
  "data": [
    {"substance": "albumin", "values": [
      {"measurement": "Caspase-3 activity mean ± S.E.", "setting": "[1]; Example 1, albumin 1 mg/ml in serum-free medium 199, 24 hours, n=4, control without albumin 0.744 ± 0.246", "result": "0.510 ± 0.191", "unit": "n mol/hr/mg protein"},
      {"measurement": "caspase-3 activity compared with the control group", "setting": "[1]; Example 2, FIG. 1, albumin 3 mg/ml, EGF 10 ng/ml, vitamin A 0.1 μg/ml", "result": "significantly lower"},
      {"measurement": "caspase-3 activity compared with the control group", "setting": "[1]; Example 3, FIG. 2, albumin 1 mg/ml, TGFα 10 ng/ml, TGFβ 10 ng/ml", "result": "significantly lower"},
      {"measurement": "DNA fragmentation mean ± S.E.", "setting": "[2]", "result": "0.096 ± 0.047"}
    ]}
  ]
}
